Counter-ions that a name gives are not always drawn.
Row | Structure (SMILES) | melting point [°C]
1 | CC(C)CNC(=O)c1nc2c(s1)C(=O)C=C(NCCN(C)C)C2=O [Example 7, 5-{[2-(dimethylamino)ethyl]amino}-N-isobutyl-4,7-dioxo-4,7-dihydro-1,3-benzothiazole-2-carboxamide] | 163 to 164
2 | CCNC(=O)c1nc2c(s1)C(=O)C=C(NCCc1ccc(F)cc1)C2=O [Example 39, N-ethyl-5-{[2-(4-fluorophenyl)ethyl]amino}-4,7-dioxo-4,7-dihydro-1,3-benzothiazole-2-carboxamide] | 260 to 261
3 | CN(C)CCNC1=CC(=O)c2sc(C(=O)NCCCN3CCCC3=O)nc2C1=O [Example 5, 5-{[2-(dimethylamino)ethyl]amino}-4,7-dioxo-N-[3-(2-oxopyrrolidin-1-yl)propyl]-4,7-dihydro-1,3-benzothiazole-2-carboxamide] | 154 to 156
4 | CN(C)CCNC1=CC(=O)c2sc(C(=O)NCCOCCOCCNC(=O)OC(C)(C)C)nc2C1=O [Example 2, tert-butyl {2-[2-(2-{[(5-{[2-(dimethylamino)ethyl]amino}-4,7-dioxo-4,7-dihydro-1,3-benzothiazol-2-yl)carbonyl]amino}ethoxy)ethoxy]ethyl}carbamate] | 55 to 57
5 | O=C1C(NCCN2CCCC2)=CC(=O)c2sc(C(=O)N3CCN(C(=O)N4CCOCC4)CC3)nc21 [Example 17, 2-{[4-(morpholin-4-ylcarbonyl)piperazin-1-yl]carbonyl}-5-[(2-pyrrolidin-1-ylethyl)amino]-1,3-benzothiazole-4,7-dione] | 193 to 194
6 | CN(C)CCNC1=C(Br)C(=O)c2sc(C(=O)N3CCN(C(=O)C4CCCO4)CC3)nc2C1=O (centres unmarked) [Example 21, 6-bromo-5-{[2-(dimethylamino)ethyl]amino}-2-{[4-(tetrahydrofuran-2-ylcarbonyl)piperazin-1-yl]carbonyl}-1,3-benzothiazole-4,7-dione] | 161 to 162
7 | CN(C)CCNC1=CC(=O)c2sc(C(=O)N3CCCC3)nc2C1=O [Example 22, 5-{[2-(dimethylamino)ethyl]amino}-2-(pyrrolidin-1-ylcarbonyl)-1,3-benzothiazole-4,7-dione] | 207 to 208
8 | CN(C)CCNC1=CC(=O)c2sc(C(=O)N3CCN(C(=O)C4CCCO4)CC3)nc2C1=O (centres unmarked) [Example 20, 5-{[2-(dimethylamino)ethyl]amino}-2-{[4-(tetrahydrofuran-2-ylcarbonyl)piperazin-1-yl]carbonyl}-1,3-benzothiazole-4,7-dione] | 168 to 169
9 | CN(C)CCNC1=CC(=O)c2sc(C(=O)N3CCN(C(=O)N4CCOCC4)CC3)nc2C1=O [Example 16, 5-{[2-(dimethylamino)ethyl]amino}-2-{[4-(morpholin-4-ylcarbonyl)piperazin-1-yl]carbonyl}-1,3-benzothiazole-4,7-dione] | 211 to 212
10 | CN(C)CCNC1=CC(=O)c2nc(C(=O)N3CCCC3)sc2C1=O [Example 34, 6-{[2-(dimethylamino)ethyl]amino}-2-(pyrrolidin-1-ylcarbonyl)-1,3-benzothiazole-4,7-dione] | 224 to 225
11 | CCNC(=O)c1nc2c(s1)C(=O)C=C(N(C)CCN(C)C)C2=O [Example 38, 5-[[2-(dimethylamino)ethyl](methyl)amino]-N-ethyl-4,7-dioxo-4,7-dihydro-1,3-benzothiazole-2-carboxamide] | 163 to 164
12 | CN(C)CCNC1=CC(=O)c2sc(C(=O)N3CCN(S(C)(=O)=O)CC3)nc2C1=O [Example 19, 5-{[2-(dimethylamino)ethyl]amino}-2-{[4-(methylsulphonyl)piperazin-1-yl]carbonyl}-1,3-benzothiazole-4,7-dione] | 201 to 202
13 | CN(C)CCNC1=CC(=O)c2sc(C(=O)N3CCOCC3)nc2C1=O [Example 1, 5-{[2-(dimethylamino)ethyl]amino}-2-(morpholin-4-ylcarbonyl)-1,3-benzothiazole-4,7-dione] | 207 to 208
14 | CN(C)CCNC1=CC(=O)c2sc(C(=O)NCC3CCCCC3)nc2C1=O [Example 13, N-(cyclohexylmethyl)-5-{[2-(dimethylamino)ethyl]amino}-4,7-dioxo-4,7-dihydro-1,3-benzothiazole-2-carboxamide] | 171 to 172
15 | COCCN(CCOC)C(=O)c1nc2c(s1)C(=O)C=C(NCCN(C)C)C2=O [Example 4, 5-{[2-(dimethylamino)ethyl]amino}-N,N-bis(2-methoxyethyl)-4,7-dioxo-4,7-dihydro-1,3-benzothiazole-2-carboxamide] | 92 to 94

Continued, values first:

Row | melting point [°C] | Structure (SMILES)
16 | 192 to 193 | COc1ccc2c(c1)CCCN2C(=O)c1nc2c(s1)C(=O)C=C(NCCN(C)C)C2=O [Example 36, 5-{[2-(dimethylamino)ethyl]amino}-2-[(6-methoxy-3,4-dihydroquinolin-1(2H)-yl)carbonyl]-1,3-benzothiazole-4,7-dione]
17 | 199 to 200 | COc1ccc(NC(=O)c2nc3c(s2)C(=O)C=C(NCCN(C)C)C3=O)cc1F [Example 35, 5-{[2-(dimethylamino)ethyl]amino}-N-(3-fluoro-4-methoxyphenyl)-4,7-dioxo-4,7-dihydro-1,3-benzothiazole-2-carboxamide]
18 | 174 to 175 | CCNC(=O)c1nc2c(s1)C(=O)C=C(NCCN(C)C)C2=O [Example 24, 5-{[2-(dimethylamino)ethyl]amino}-N-ethyl-4,7-dioxo-4,7-dihydro-1,3-benzothiazole-2-carboxamide]
19 | 209 to 210 | COc1ccc(C(=O)N2CCN(C(=O)c3nc4c(s3)C(=O)C=C(NCCN(C)C)C4=O)CC2)cc1 [Example 37, 5-{[2-(dimethylamino)ethyl]amino}-2-{[4-(4-methoxybenzoyl)piperazin-1-yl]carbonyl}-1,3-benzothiazole-4,7-dione]
20 | 220 to 221 | CN(C)CCNC1=CC(=O)c2sc(C(=O)Nc3ccc4c(c3)OCO4)nc2C1=O [Example 26, N-1,3-benzodioxol-5-yl-5-{[2-(dimethylamino)ethyl]amino}-4,7-dioxo-4,7-dihydro-1,3-benzothiazole-2-carboxamide]
21 | 207 to 208 | COc1ccc(NC(=O)c2nc3c(s2)C(=O)C=C(NCCN(C)C)C3=O)cc1 (as salt: methanesulphonate) [Example 18, 5-{[2-(dimethylamino)ethyl]amino}-N-(4-methoxyphenyl)-4,7-dioxo-4,7-dihydro-1,3-benzothiazole-2-carboxamide]
22 | 208 to 209 | CN(C)CCNC1=CC(=O)c2sc(C(=O)Nc3ccc(F)cc3)nc2C1=O [Example 33, 5-{[2-(dimethylamino)ethyl]amino}-N-(4-fluorophenyl)-4,7-dioxo-4,7-dihydro-1,3-benzothiazole-2-carboxamide]
23 | 188 to 189 | CN(C)CCNC1=CC(=O)c2sc(C(=O)NCc3ccccc3)nc2C1=O [Example 12, N-benzyl-5-{[2-(dimethylamino)ethyl]amino}-4,7-dioxo-4,7-dihydro-1,3-benzothiazole-2-carboxamide]

From patent publication US7795284B2, “4,7-dioxobenzothiazole-2-carboxamide derivatives, their preparation and their therapeutic uses” (Ipsen Pharma S.A.S., priority 2004, dated 2010)
